Assay results published in patent US5192786A, “Substituted biphenylalkoxyamines” (Ortho Pharmaceutical Corporation, priority 1990, dated 1993).
pIC50: −log10 of the molar value. Values after ≈ are worked out from the molar mass of the structure shown. Where a name gives a salt, the structure may show the parent alone. Read-outs that look alike come from different tables or passages of the source.

Tests used:
Candida albicans = experiment: In vitro antimicrobial activity, minimal inhibitory concentration (agar dilution), Candida albicans; assay type: cell-based, Candida albicans ATC 10231; details: read-out: Minimal inhibitory concentration, Candida albicans
Protocol: (§1) A 0.5 mg/ml stock solution of each Example compound was prepared in an appropriate solvent. From this stock, dilutions were prepared in solvent, and 0.2 ml aliquots of the stock and dilutions were added to tubes containing 19.8 ml of Mueller Hinton agar (46°-50° C.). The mixtures were poured into 100 by 15 mm petri dishes and allowed to solidify.
(§2) The test organisms (Candida albicans ATC 10231 and Trichophyton mentagrophytes ATC 22839) were diluted from frozen stock cultures. Inocula were diluted with sterile solution containing 0.1% peptone in water to contain approximately 2×10^5 […] (CFUs) per ml. Plate counts were performed on 1 mL of all inocula.
(§3) Each plate and unadulterated agar growth control was inoculated with the inocula prepared above using a Steer's Replicator method. Plates were then incubated at 32° C. Observations for growth were made at 48 hours.
(§4) The results of this test are reported below in Table 1 as compared to the known antifungal agents, miconazole nitrate and terconazole.

[1] = test system: Trichophyton mentagrophytes; experiment: In vitro antimicrobial activity, minimal inhibitory concentration (agar dilution), Trichophyton mentagrophytes; assay type: cell-based, Trichophyton mentagrophytes ATC 22839; details: Mueller Hinton agar, 32° C., 48 hours, complete inhibition of growth
Protocol: as §1, §2, §3, §4

[2] = test system: histamine stimulated parietal cell; experiment: Isolated parietal cell assay, inhibition of 14C-aminopyrine accumulation, histamine stimulated; assay type: cell-based, rabbit; details: Oryctolagus cuniculus, 20 min, read-out: Isolated Parietal Cells IC50 vs his
Protocol: (§5) The isolated parietal cell assay was conducted using the procedures of Batzri, S. et al., Biochemica et Biophysica Acta 508, 328 (1978) and Soll, A.H. Am. J. Physiol. 238, G366 (1980). Basically, parietal cells were isolated from the fundic mucosa of rabbit stomachs by a four-stage collagenase digestion process. The supernatant fractions from the last two stages of this process contain the individual parietal cells. This cell suspension was centrifuged and reconstituted in a modified Hank's buffer to contain 1-2×10^6 cells/ml. […] This accumulation was stimulated by histamine and was blocked by H2 antagonists. The cells were incubated with 0.4-0.5×10^6 cpm ^14 C-AP, with various concentrations of histamine as a stimulant, 1×10^-5 M isobutylmethylxanthine, and the test compound added in a 20 μl volume of buffer or DMSO. The flasks were incubated in a shaking water bath at 37° C. for 20 minutes. Two aliquots were then taken from each flask and cell pellets were collected by centrifugation. The pellets were solubilized with Protosol (New England Nuclear) and radioactivity determined by liquid scintillation spectrometry. Data are presented as the IC50 vs hist, the concentration of compound required to inhibit ^14 C-AP accumulation in the histamine stimulated parietal cell by 50%.

[3] = test system: cAMP stimulated parietal cell; experiment: Isolated parietal cell assay, inhibition of 14C-aminopyrine accumulation, dibutyryl cAMP stimulated; assay type: cell-based, rabbit; details: Oryctolagus cuniculus, 20 min, read-out: Isolated Parietal Cells IC50 vs cAMP
Protocol: as §5
When dibutyryl cAMP was used to stimulate the cells instead of histamine, a similar inhibition of ^14 C-AP accumulation was measured and the data are presented as the IC50 vs cAMP, the concentration of compound required to inhibit ^14 C-AP accumulation in the cAMP stimulated parietal cell by 50%.

[4] = In vivo antisecretory activity, gastric secretion in pylorus ligated rats (acid output); set-up: species or system male Charles River Sprague Dawley derived rats; details: Rattus norvegicus, 4 h; 20 mpk, po; four hours after ligation; read-out: Pylorous Ligated Rats, effect on acid output compared to control
[5] = In vivo anticonvulsant activity, Antimetrazol (pentylenetetrazol-induced convulsions); set-up: species or system Male CD1 mice; key: +: Active; ±: Active, but weak; -: Inactive at this dose; details: p.o., 125 mg/kg pentylenetetrazol s.c. challenge; for Anticonvulsant profile, Antimetrazol (10): 10 mg/kg; for Anticonvulsant profile, Antimetrazol (100): 100 mg/kg
Protocol: Male CD1 mice, fasted at least 16 hours, were divided into groups of 10 and test compounds or vehicle were administered orally by gavage. The vehicle used was 0.5% aqueous methylcellulose solution containing 0.4% (v/v) of Tween 80. One hour later (or at time of suspected peak activity), the mice were challenged with 125 mg/kg of pentylenetetrazol, administered subcutaneously. Pentylenetetrazol was dissolved in 0.9% sodium chloride solution, and the dosage volume for administration of test compounds or the convulsant challenge was 10 ml/kg. Animals were housed individually for observation of convulsions for a period of 30 minutes.
Pentylenetetrazol-induced convulsions in vehicle-treated mice consist of mixed-clonic/tonic seizures. Tonic hindlimb extension and death are terminal consequences. Test compounds that block the hindlimb tonic extensor component of the convulsions in at least 50% of treated mice were considered active. ED50 values of active compounds may be calculated by the method of probits (Finney, 1971).

[6] = In vivo anticonvulsant activity, Antielectroshock; set-up: species or system Male CD1 mice; key: +: Active; ±: Active, but weak; -: Inactive at this dose; details: p.o.; for Anticonvulsant profile, Antielectroshock (10): 10 mg/kg; for Anticonvulsant profile, Antielectroshock (100): 100 mg/kg
General CNS Behavior = assay type: in vivo, Male CD1 mice; details: 100 mg/kg, p.o.
[7] = Mueller Hinton agar, 32° C., 48 hours, complete inhibition of growth
[8] = histamine stimulated, 14C-aminopyrine accumulation, 37° C., 20 minutes
[9] = dibutyryl cAMP stimulated, 14C-aminopyrine accumulation, 37° C., 20 minutes

Structure (SMILES)	MIC (Candida albicans; [7]) [µg/mL]	MIC [1] [µg/mL]	pIC50 [2, 8]	pIC50 [3, 9]	change in vivo at 20 mg/kg [4] [%]	Anticonvulsant profile, Antimetrazol (10) [5]	Anticonvulsant profile, Antimetrazol (100) [5]	Anticonvulsant profile, Antielectroshock (10) [6]	Anticonvulsant profile, Antielectroshock (100) [6]	General CNS Behavior (General CNS Behavior)	pIC50 [2]	pIC50 [3]	MIC (Candida albicans; 48 h) [µg/mL]
Cl.c1ccc(-c2ccc(OCCCCn3ccnc3)cc2)cc1 [Example 6, 1-(1H-Imidazol-1-ylbutoxy)-4-phenylbenzene hydrochloride]	1	1	6.77	6.80	-24	-	±	-	±	Wk CNS Depr			
CN/C(=N/CCSCc1nc[nH]c1C)NC#N [Cimetidine, cimetidine, reference compound]											6.09	< 4.00	
CCCN(CCC)CCCOc1ccc(/C=C/c2cccc(OC)c2)cc1 [Example 3, (E)-3'-Methoxy-4-dipropylamino-propoxystilbene hydrochloride]	50	50	7.00	6.96	-92	-	+		-				
C(=C\c1ccc(OCCCn2ccnc2)cc1)/c1ccccc1.Cl [Example 2, (E)-4-(1H-Imidazol-1-yl)propoxystilbene hydrochloride]	> 50	10	6.80	6.57	-4	-	+	-	+				
Cl.c1ccc(-c2ccc(OCCCCCn3ccnc3)cc2)cc1 [Example 9, 1-(1H-Imidazol-1-ylpentoxy)-4-phenylbenzene hydrochloride]	50	10	7.05	6.96	-54			-					
Clc1cccc(/C=C/c2ccc(OCCCCn3ccnc3)cc2)c1 [Example 5, hydrochloride]	> 50	> 50	6.74	7.00	-12								
Cl.O=C(c1ccc(Cl)cc1)c1ccc(OCCCn2ccnc2)cc1 [Example 11, 4'-Chloro-4-(1H-imidazol-1-ylpropoxy) benzophenone hydrochloride]	> 50	1	6.55	6.55	-35		-		-				
Cl.c1ccc(-c2ccc(OCCCn3ccnc3)cc2)cc1 [Example 8, 1-(1H-Imidazol-1-ylpropoxy)-4-phenylbenzene hydrochloride]	1	1	6.64	6.49	-33	-	±	-	±	Wk CNS Depr			
c1ccc(Cc2ccc(OCCCn3ccnc3)cc2)cc1 [Example 12, 1-[4-(1H-Imidazol-1-ylpropoxyphenyl)-1-phenylmethane hydrochloride]	50	10	6.85	6.52	-51	-	+	-	+	Mod CNS Depr			
Clc1ccc(COC(Cn2ccnc2)c2ccc(Cl)cc2Cl)c(Cl)c1 (stereo not drawn) [Miconazole Nitrate, miconazole nitrate, reference compound]		5											1
CCCN(CCC)CCCCOc1ccc(-c2ccccc2)cc1.Cl [Example 7, 1-(Dipropylaminobutoxy)-4-phenylbenzene hydrochloride]	50	1	6.92	6.59	-45	-	±	-	±				
c1ccc(-c2ccc(OCCCCCn3cncn3)cc2)cc1 [Example 10, hydrochloride]	> 50	10	> 5.00	> 5.00									
C(=C\c1ccc(OCCCCn2ccnc2)cc1)/c1ccccc1 [Example 1, hydrochloride]	> 50	50	6.35	6.35	-32		-		-				
CNC(=C[N+](=O)[O-])NCCSCc1ccc(CN(C)C)o1 [Ranitidine, ranitidine, reference compound]			7.40	< 4.00									
CC(C)N1CCN(c2ccc(OCC3COC(Cn4cncn4)(c4ccc(Cl)cc4Cl)O3)cc2)CC1 (stereo not drawn) [Terconazole, terconazole, reference compound]	0.1 (≈ 0.188 µM)	50 (≈ 93.9 µM)											
